For data set [1], the system named is Zika virus. Put plainly: Inhibition of Zika virus BeH823339 NS2B protease (49 to 95 residues) R96A mutant/NS3 protease (1 to 170 residues) R29G/ C80S/C143S mutant expressed in Escherichia coli BL21 (DE3) cells using Bz-Nle-Lys-Lys-Arg-AMC as a fluorogenic substrate at 100 uM preincubated with enzyme for 10 mins by fluorescence-based analysis relative to control.

Data set [2] concerns Zika virus. Put plainly: Antiviral activity against Zika virus PE243 infected in African green monkey Vero E6 cells assessed as inhibition of viral replication at 10 uM incubated for 72 hrs by immunofluorescence analysis. It counts as functional. The conditions noted are these: PE243, Vero C1008.
Data set [3] deals with Zika virus. The experiment in a line: Antiviral activity against Zika virus PE243 infected in African green monkey Vero E6 cells assessed as inhibition of viral replication at 2 uM incubated for 72 hrs by immunofluorescence analysis. It counts as functional. The conditions noted are these: PE243, Vero C1008.
Data set [4] is described as follows: Cytotoxicity against African green monkey Vero E6 cells assessed as cell viability at 2 uM measured after 72 hrs by MTT assay relative to control. In kind it is toxicity, cell-based, Vero C1008. The settings on record: chlorocebus sabaeus, read-out: Activity. In general terms: Tetrazolium assays rely on reduction of a dye to a coloured formazan, in cell work by metabolically active cells.

The nature of data set [5]: Cytotoxicity against African green monkey Vero E6 cells assessed as cell viability at 10 uM measured after 72 hrs by MTT assay relative to control. The conditions noted are these: chlorocebus sabaeus, read-out: Activity. It counts as toxicity, cell-based, Vero C1008.
A further data set concerns BHK-21. Put plainly: Cytotoxicity against golden hamster BHK21-RepZIKV_IRES-Neo cells assessed as reduction in cell viability measured after 72 hrs by MTT assay. It counts as toxicity, cell-based, Mesocricetus auratus. The conditions noted are these: bhk-21, 72 h.
Data set [6] has as its system Zika virus. Put plainly: Antiviral activity against Zika virus infected in golden hamster BHK21-RepZIKV_IRES-Neo cells assessed as inhibition of viral replication by measuring reduction in renilla luciferase expression at 10 uM measured after 72 hrs by luciferase reporter gene assay relative to control. It counts as functional, Mesocricetus auratus. The conditions noted are these: BHK-21.

The nature of data set [7]: Cytotoxicity against African green monkey Vero E6 cells assessed as reduction in cell viability measured after 72 hrs by MTT assay. In kind it is toxicity, cell-based, Vero C1008. The settings on record: chlorocebus sabaeus.
Data set [8] can be described thus: Selectivity index, ratio of CC50 for cytotoxicity against African green monkey Vero E6 cells to EC50 for antiviral activity against Zika virus PE243 infected in African green monkey Vero E6 cells. It counts as toxicity, cell-based, Vero C1008. The settings on record: read-out: Ratio CC50/EC50.
Data set [9] relates to Zika virus. Put plainly: Inhibition of Zika virus BeH823339 NS2B protease (49 to 95 residues) R96A mutant/NS3 protease (1 to 170 residues) R29G/ C80S/C143S mutant expressed in Escherichia coli BL21 (DE3) cells using Bz-Nle-Lys-Lys-Arg-AMC as a fluorogenic substrate at 100 uM by fluorescence-based analysis relative to control.
Data set [10] concerns Zika virus. Put plainly: Antiviral activity against Zika virus PE243 infected in African green monkey Vero E6 cells assessed as inhibition of viral replication incubated for 72 hrs by immunofluorescence analysis. It counts as functional, organism-based. The conditions noted are these: PE243, Vero C1008, 72 h.

Molecules are shown by their SMILES. pEC50: −log10 of the molar value.

The results in this text go back to ChEMBL document CHEMBL5390225, “Discovery and structural optimization of a new series of N-acyl-2-aminobenzothiazole as inhibitors of Zika virus” (Bioorg Med Chem, 2023).

By inhibition is commonly meant the drop in the measured response relative to a control, in per cent. As usually defined, the CC50 is the concentration at which the toxic effect on the cells reaches its halfway point. Usually pEC50 stands for the EC50 on a negative log10 scale, so that one unit is a factor of ten.

In the case of `Cc1ccc(S(=O)(=O)NCC(=O)Nc2nc3ccccc3s2)cc1`, the inhibition in the data set on Zika virus [1] stood at 21%. For the same molecule, in the data set with Zika virus [2], the inhibition at 10 µM came to 27.9%. In addition, in the data set on Zika virus [3], the inhibition at 2 µM was determined as 6.8%. The viability at 72 h, 2 µM in data set [4] worked out at 101%. For the same molecule, the viability at 72 h, 10 µM in [5] turned out to be 74.4%.

Turning to `O=C(Nc1nc2ccccc2s1)c1ccc(NS(=O)(=O)c2ccc(Br)cc2)cc1`, in the data set with BHK-21, the Activity entry is reported as “Non-Toxic”. The results for the inhibition in the data set with Zika virus [1] and in the data set with Zika virus [9] were 4% and 7%, respectively. Besides, the inhibition at 10 µM in the data set with Zika virus [6] was found to be 60.4%; in the data set with Zika virus [2], 75.7%. In addition, the CC50 at 72 h in data set [7] was 45.8 µM. Besides, in data set [8], the selectivity ratio amounted to 9.2. Also, in the data set with Zika virus [3], the inhibition at 2 µM was 69.1%. Also, the pEC50 in the data set on Zika virus [10] was 5.30. For the same molecule, the viability at 72 h, 2 µM in [4] amounted to 97%. The viability at 72 h, 10 µM in [5] was determined as 22.7%.

As for `CC(C)(C)OC(=O)NCC(=O)Nc1nc2ccccc2s1`, the CC50 at 72 h in [7] worked out at 79 µM. The selectivity ratio in data set [8] stood at 4.7. In addition, the inhibition at 10 µM in the data set on Zika virus [2] turned out to be 56.5%. For the same molecule, in the data set with Zika virus [3], the inhibition at 2 µM was 18.9%. The pEC50 with Zika virus [10] is 4.77. Also, in data set [4], the viability at 72 h, 2 µM was 104%. In [5], the viability at 72 h, 10 µM was determined as 60.1%.

The molecule `COc1ccc(S(=O)(=O)NCC(=O)Nc2nc3ccccc3s2)cc1` came in with an inhibition in the data set with Zika virus [1] of 62%. Further, in the data set with Zika virus [2], the inhibition at 10 µM stood at 0%. Besides, the inhibition at 2 µM with Zika virus [3] was determined as 0%. The viability at 72 h, 2 µM in data set [4] stood at 104%. Further, the viability at 72 h, 10 µM in data set [5] was 82.7%.

Take `O=C(Nc1nc2ccccc2s1)c1ccc(NS(=O)(=O)c2ccc(F)cc2)cc1`: the inhibition in the data set on Zika virus [1] stood at 27%; in the data set on Zika virus [9], 22%. The inhibition at 10 µM in the data set on Zika virus [2] stood at 54.7%. The inhibition at 2 µM with Zika virus [3] amounted to 15.3%. The viability at 72 h, 2 µM in data set [4] came to 93.6%. For the same molecule, in data set [5], the viability at 72 h, 10 µM was 40.4%.

Take `O=C(Nc1nc2ccccc2s1)c1ccc(NS(=O)(=O)c2ccccc2)cc1`: the inhibition worked out at 28% in the data set on Zika virus [1] and 20% in the data set with Zika virus [9]. The inhibition at 10 µM with Zika virus [2] is 82.6%. Moreover, the inhibition at 2 µM in the data set on Zika virus [3] came out at 44.7%. The viability at 72 h, 2 µM in data set [4] came out at 85.9%. For the same molecule, in data set [5], the viability at 72 h, 10 µM was found to be 17.7%.

For `Cc1ccc(S(=O)(=O)Nc2ccc(C(=O)Nc3nc4ccccc4s3)cc2)cc1`, the inhibition was found to be 28% in the data set with Zika virus [1] and 20% in the data set with Zika virus [9]. Besides, in the data set on Zika virus [2], the inhibition at 10 µM amounted to 83%. Moreover, the inhibition at 2 µM in the data set with Zika virus [3] is 5.5%. For the same molecule, in data set [4], the viability at 72 h, 2 µM was determined as 70.6%. Moreover, in data set [5], the viability at 72 h, 10 µM amounted to 19.5%.

As to `CC(=O)Nc1ccc(S(=O)(=O)Nc2ccc(C(=O)Nc3nc4ccccc4s3)cc2)cc1`, the inhibition came to 57% in the data set on Zika virus [1] and 44% with Zika virus [9]. The inhibition at 10 µM in the data set with Zika virus [2] stood at 25.8%. In addition, the inhibition at 2 µM with Zika virus [3] worked out at 0.9%. Also, in [4], the viability at 72 h, 2 µM came out at 98.1%. Also, in [5], the viability at 72 h, 10 µM was 72.3%.

Molecule `COc1ccc(S(=O)(=O)Nc2ccc(C(=O)Nc3nccs3)cc2)cc1` gave an inhibition in the data set with Zika virus [1] of 7%. Besides, in the data set with Zika virus [2], the inhibition at 10 µM is 16.1%. Moreover, in the data set on Zika virus [3], the inhibition at 2 µM came out at 4.9%. Further, in data set [4], the viability at 72 h, 2 µM worked out at 95.7%. In addition, the viability at 72 h, 10 µM in [5] is 98.9%.

With `COc1ccc(S(=O)(=O)Nc2ccc(C(=O)Nc3nc4ccccc4[nH]3)cc2)cc1`, the inhibition in the data set with Zika virus [1] turned out to be 43%. Moreover, in the data set with Zika virus [2], the inhibition at 10 µM was 0%. In addition, in the data set with Zika virus [3], the inhibition at 2 µM was 0%. In addition, in data set [4], the viability at 72 h, 2 µM was determined as 93.1%. For the same molecule, the viability at 72 h, 10 µM in [5] amounted to 25.9%.

In turn, `O=C(CNS(=O)(=O)c1ccc(F)cc1)Nc1nc2ccccc2s1` registered an inhibition in the data set with Zika virus [1] of 43%. Besides, the inhibition at 10 µM in the data set with Zika virus [2] stood at 65.1%. Moreover, the inhibition at 2 µM in the data set with Zika virus [3] came to 15.9%. Further, in data set [4], the viability at 72 h, 2 µM came to 95.6%. For the same molecule, in data set [5], the viability at 72 h, 10 µM turned out to be 26.5%.
